Source: patent US10662407B2, “Method for controlling differentiation of embryonic stem cells into adipocytes or kidney precursor cells by regulating SIRT1 expression” (INDUSTRIAL COOPERATION FOUNDATION CHONBUK NATIONAL …, priority 2015, dated 2020)

Legend:
Six2 mRNA expression = experiment: Quantitative PCR of Six2 mRNA during differentiation of embryonic stem cells into kidney precursor cells; type: cell-based, mouse; conditions: for mRNA expression level of Six2: embryonic stem cells, EX527 5-10 uM, resveratrol 10-20 uM, FIG. 7B
Protocol: (§1) The cell culture media, from which Leukemia Inhibitory Factor (LIF; Milipore, USA) was removed, were treated with 100 nmol/L Retinoic acid and 10 ng/mL Activin A, and then mRNA expression levels of Six2 and WT1, kidney precursor cells, were measured. In the process of induction into kidney precursor cells, embryonic stem cells were inoculated into wells of a 6-well plate to be cultured therein.
(§2) The media for differentiation into kidney precursor cells were cultured by adding 2 mM Gluta MAX™ (Gibco, USA), 1× Non-essential aminoacid, (1×NEAA; Gibco, USA), 0.1 mM beta-mercaptoethanol (Invitrogen, USA) and […] to DMEM.
(§3) In the step for differentiation of embryonic stem cells into kidney precursor cells, mRNA expression levels of Six2 and WT1, indicators of kidney precursor cells, were measured by a PCR method. Each primer used in the PCR method was as represented in Table 2 and was manufactured by Bioneer (Korea). GAPDH was used as a control group for the reliability of the PCR method.
(§4) In the same manner as in Example 6, differentiation of embryonic stem cells into kidney precursor cells was induced, each cell was harvested on day 11 of differentiation induction and then total RNAs were extracted using TRIzol reagent (Life Technology, USA). The extracted RNAs were synthesized into cDNAs using a cDNA synthesis kit (Roche, Germany) and a PCR method was carried out using the primers represented in Table 2.
(§5) In order to confirm the differentiation of embryonic stem cells into kidney precursor cells according to the inhibition or promotion of SIRT1 protein expression, the differentiation of the embryonic stem cells (SIRT1+/+; WT) expressing the SIRT1 genes, which were prepared in Example 1, into kidney precursor cells was confirmed. The differentiation was confirmed by protein expression levels of Six2 and WT1, indicators of kidney precursor cells.
(§6) In the step for differentiation of embryonic stem cells into kidney precursor cells, mRNA expression levels of Six2 and WT1, indicators of kidney precursor cells, were measured by a quantitative PCR method.

[1] = tested on: mouse embryonic stem cells (SIRT1+/+; WT), differentiation into adipocytes; experiment: Oil Red O staining of embryonic stem cells differentiated into adipocytes; type: cell-based; conditions: for differentiation into adipocytes versus group without inhibitor (Oil Red O): EX527 10 μM, FIG. 4
Protocol: In the present disclosure, in order to determine whether differentiation of embryonic stem cells into adipocytes was affected by the presence or absence of SIRT1 protein expression, degrees of differentiation of the embryonic stem cells (SIRT1+/+; WT) expressing the SIRT1 genes and the mouse embryonic stem cells lacking SIRT1 genes (SIRT1−/−; KO), prepared in Example 1, were determined, and when EX527 (10 μM, Tocris, UK), SIRT1 inhibitor, was treated with SIRT1+/+ embryonic stem cells, the degree of lipid differentiation according to SITRT1 inhibition was determined.
In the hanging-drop culture, 1000 embryonic stem cells were added into 20 μl to prepare a single embryoid body, the process of induction into adipocytes was cultured by inoculating 15 cultures into each well using a 6-well plate.
The medium for differentiation into adipocyte was prepared by adding 85 nM insulin (Sigma, USA), 2 nM triiodothyronine (Sigma, USA) and 2 μM rosiglitazone (Sigma, USA) to DMEM and embryoid bodies were cultured, the medium exchange was performed daily.
In addition, SIRT1 inhibitor EX527 was added to SIRT1+/+ embryonic stem cells until the early 5th day of differentiation into adipocytes.
Oil Red O staining was performed to determine whether the differentiation into adipocytes was successfully performed in mouse embryonic stem cells differentiated for 21 days in Example 2.
First, SIRT1+/+ cells, SIRT1−/− cells, and SIRT1+/+ cells differentiated by treatment with SIRT1 inhibitor were treated with 10% formaldehyde to fix the cells, the formaldehyde was washed with phosphate buffered saline three times and then was treated with 60% isopropanol. Then, 2 ml Oil Red O staining solution was added and the mixture was stained at room temperature for 30 minutes in the dark, and then was washed with phosphate buffered saline three times.
Oil Red O staining was performed on the lipid droplets in the differentiated adipocytes. After staining, the cells were observed using a microscope to identify red-stained fat adipocytes.
When the observation was completed, stained dye in adipocyte was extracted using 1 ml isopropanol per well and optical density (OD) was measured at 500 nm with an ELISA reader. The Oil Red O staining solution is a solution of 500 mg of Oil Red O dye (Sigma, USA) in 100 ml isopropanol, mixed with distilled water at a ratio of 6:4 and filtered using a 0.45 μm filter.
In the same manner as in Example 2, differentiation of embryonic stem cells into adipocytes was induced. The samples were divided into various groups: a group treated for 0 to 5 days at the early stage of differentiation, a group treated for 7 to 21 days at the latter stage of differentiation, and a group treated for 0 to 21 days during the entire differentiation period, which were treated with the SIRT1 inhibitor.

PPARγ mRNA expression = experiment: PCR of PPARγ mRNA during adipocyte differentiation of embryonic stem cells; type: cell-based, mouse; conditions: SIRT1+/+ cells treated with EX527 10 μM, harvested 7 and 10 days after induction, FIG. 3
Protocol: (§7) In the present disclosure, in order to confirm the mechanism of regulating the differentiation of embryonic stem cells into adipocytes by SIRT1, in the step of differentiating into adipocytes, mRNA expression levels of peroxisome proliferator-activated receptors-γ (PPARγ), CCAAT/enhancer-binding protein-α (C/EBP α) and fatty acid binding protein 4 (FABP4) in adipocytes were measured by a PCR method. Each primer used in the PCR method was as represented in Table 1 and was manufactured by Bioneer (Korea). GAPDH was used as a control group for the reliability of the PCR method.
as §4, with “2,” for “6,”, “adipocytes” for “kidney precursor cells”, “7 and 10 days after induction” for “day 11”, “lipid differentiation,” for “differentiation induction”, “and” for “and then”, “1.” for “2.”

FABP4 mRNA expression = experiment: PCR of FABP4 mRNA during adipocyte differentiation of embryonic stem cells; type: cell-based, mouse; conditions: SIRT1+/+ cells treated with EX527 10 μM, harvested 7 and 10 days after induction, FIG. 3
Protocol: as §7
as §4, with “2,” for “6,”, “adipocytes” for “kidney precursor cells”, “7 and 10 days after induction” for “day 11”, “lipid differentiation,” for “differentiation induction”, “and” for “and then”, “1.” for “2.”

C/EBP α mRNA expression = experiment: PCR of C/EBP α mRNA during adipocyte differentiation of embryonic stem cells; type: cell-based, mouse; conditions: SIRT1+/+ cells treated with EX527 10 μM, harvested 7 and 10 days after induction, FIG. 3
Protocol: as §7
as §4, with “2,” for “6,”, “adipocytes” for “kidney precursor cells”, “7 and 10 days after induction” for “day 11”, “lipid differentiation,” for “differentiation induction”, “and” for “and then”, “1.” for “2.”

WT1 mRNA expression = experiment: Quantitative PCR of WT1 mRNA during differentiation of embryonic stem cells into kidney precursor cells; type: cell-based, mouse; conditions: for mRNA expression level of WT1: embryonic stem cells, EX527 5-10 uM, resveratrol 10-20 uM, FIG. 7A
Protocol: as §1, §2, §3, §4, §5, §6

## NC(=O)C1CCCc2c1[nH]c1ccc(Cl)cc21 (stereo not shown) [EX527, 6-Chloro-2,3,4,9-tetrahydro-1H-Carbazole-1-carboxamide]
Six2 mRNA expression
  mRNA expression level of Six2: significantly decreased
Six2 mRNA expression; listed as SIRT1 inhibitor
  mRNA expression level of Six2: decreased
[1]; treated 0 to 5 days, early stage of differentiation
  differentiation into adipocytes versus group without inhibitor (Oil Red O): decrease in differentiation into adipocytes
[1]; treated 0 to 21 days, entire differentiation period
  differentiation into adipocytes versus group without inhibitor (Oil Red O): not significantly different
[1]; treated 7 to 21 days, latter stage of differentiation
  differentiation into adipocytes versus group without inhibitor (Oil Red O): more differentiated into adipocytes
[1]; SIRT1+/+ cells, EX527 10 μM until early 5th day of differentiation, 21 days differentiation, FIG. 2A
  adipocyte differentiation (lipid droplets, Oil Red O staining, microscope) versus SIRT1+/+ cells: remarkably lower
[1]; SIRT1+/+ cells, EX527 10 μM until early 5th day, compared to SIRT1+/+ cells, FIG. 2B
  reduction of adipocyte differentiation (absorbance at 500 nm of extracted Oil Red O): about 38%
PPARγ mRNA expression
  mRNA expression of PPARγ: significantly decreased
FABP4 mRNA expression
  mRNA expression of FABP4: significantly decreased
C/EBP α mRNA expression
  mRNA expression of C/EBP α: significantly decreased
WT1 mRNA expression
  mRNA expression level of WT1: significantly decreased
WT1 mRNA expression; listed as SIRT1 inhibitor
  mRNA expression level of WT1: decreased

## Oc1ccc(C=Cc2cc(O)cc(O)c2)cc1 [resveratrol]
Six2 mRNA expression
  mRNA expression level of Six2: significantly increased
Six2 mRNA expression; resveratrol 20 μM
  expression of Six2 compared with control: significantly promoted
WT1 mRNA expression
  mRNA expression level of WT1: significantly increased
WT1 mRNA expression; resveratrol 20 μM
  expression of WT1 compared with control: significantly promoted
